Measurements reported in PubChem BioAssay AID493101 (Broad Institute, 2011).
Inconclusive results are not listed. Calls of active or inactive are those of the source.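 Rule for the calls: active = luminescence falls with dose and the fitted half-maximal concentration is within ten times the top dose in every run; inconclusive = runs disagree, or a flat moderate drop, or a poor fit; inactive = every run inactive, including rises or flat response.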

Tested on: not listed separately
Experiment: LuxS/LuxPQ-dependent luminescence inhibition, V. harveyi – dry powder, set 4, dose response (AID 493101)
Details: Vibrio harveyi JMH597 AI-2 quorum sensing luminescence, 9 h; at 16 µM (top of the series)

Row | SMILES | activity change, negative = inhibition
1 | Cc1ccccc1NS(=O)(=O)c1cn(C)cn1 | -1.44% (inactive)
2 | CC(=O)Nc1ccccc1NS(=O)(=O)c1cn(C)cn1 | 2.17% (inactive)
3 | Cn1cnc(S(=O)(=O)Nc2ccccc2Cl)c1 | 3.87% (inactive)
4 | Cn1cnc(S(=O)(=O)Nc2ccccc2F)c1 | 2.07% (inactive)
5 | CN(C)C(=O)c1ccccc1NS(=O)(=O)c1cn(C)cn1 | 0.404% (inactive)
6 | CCc1ccc(-c2ccc(C(=O)O)n2CC)cc1 | 2.4% (inactive)
7 | COc1ccccc1NS(=O)(=O)c1cn(C)cn1 | -5.36% (inactive)

Tested on: Vibrio harveyi JMH597 AI-2 quorum sensing luminescence, 9 h
Experiment: as above
Details: not given

Row | SMILES | AC50
8 | O=S(=O)(Nc1ccccn1)c1ccc(Oc2ccccc2)cc1 | 7.34 µM
9 | O=C1C=C/C(=C/Br)O1 | 4.64 µM
10 | O=S(=O)(Nc1cccnc1)c1ccc(Oc2ccccc2)cc1 | 0.766 µM
11 | C=Cn1c(C(=O)O)ccc1-c1ccc(CC)cc1 | 3.22 µM
12 | Cn1cnc(S(=O)(=O)Nc2ccc(OC(F)(F)F)cc2)c1 | 8.62 µM
13 | CCc1ccc(-c2ccc(C(=O)O)n2C)cc1 | 5.52 µM
